Data on one molecule can be found in patent publication US20240350392A1, “COMPOSITION WITH BIOLOGICALLY ACTIVE AGENT” (THE BOOTS COMPANY PLC, priority 2021, published 2024).

The nature of this series: Franz cell ex vivo skin explant penetration with 3D OrbiSIMS analysis. In kind it is in vitro ADME, human. Particulars: after 1 hour in Franz cell; formulation with glycerin+methyl gluceth-20 versus glycerin only (FIG. 1). Here is the method:
For ex vivo analysis, full thickness human skin tissue was removed during cosmetic surgery from Caucasian female donors (aged 35-70). The explant was frozen immediately post-surgery, shipped and stored at −20° C. prior to use.
The tissue was then defrosted, cut and mounted, dermal side down, in a Franz-type static diffusion cell set-up (Franz, 1975), with an exposed surface area of 1.1 cm^2. Infinite doses of the cosmetic formulations were applied to the donor chamber, with the explant exposed to the formulations for 1 hour in a water bath set to 36.5° C. Sink conditions were maintained throughout the experiments.
After 1 hour, the Franz cell was dismantled, excess formulation was removed with a dry sponge and the skin explant was wiped with a sponge soaked in Teepol Solution (3% v/v). Next, the explant was dehydrated under vacuum at room temperature for 24 hours before 3D OrbiSIMS analysis 3D OrbiSIMS Analysis […]
A 20 KeV Ar 3000^+ analysis beam with a diameter of 20 μm was used as the primary ion source. Samples were analysed at ambient temperature across a 400×400 μm area in positive polarity with sawtooth raster mode and a total crater size of 486×486 μm. […] Mass spectra were recorded at a resolution of 240,000 at m/z 200 in the mass range of 75 to 1,125 m/z. […]

Residues, ends and D or L forms follow the SMILES beside them. *: point of attachment. Palmitoyl = CCCCCCCCCCCCCCCC(=O)*

On to `CCCCCCCCCCCCCCCC(=O)NCC(=O)N[C@@H](Cc1c[nH]cn1)C(=O)N[C@@H](CCCCN)C(=O)O` [Pal-GHK, N-Palmitoyl-Gly-His-Lys] (Palmitoyl-Gly-His-Lys-OH; C-terminus assumed), for which the “Pal-GHK peptide ion intensity in skin explant” value is on record as “more peptide ion present”.
